Data from patent US5403840A, “Inclusion complexes of N-ethoxycarbonyl 1-3-morpholino-sydnonimine or salts formed with cyclodextrin-derivatives, preparation thereof and pharmaceutical compositions containing the same” (Chinoin Gyogyszer-Es Vegyeszeti Termekek Gyar Rt., priority 1990, dated 1995).
≈ marks a conversion by molar mass, not a printed value.

Key:
[1] = Membrane permeation test, dialysis profile of Molsidomin-β-CD granule; format: physicochemical; details: Molsidomin 1 mg/ml or equivalent granule, 100% diffusion = 0.33 mg/ml
Description: Visking-type cellophane membrane (average pore diameter 24 angstroms) was used. Aqueous solutions of Molsidomin at a concentration of 1 and 2 mg/ml were put in the donor cell, while distilled water was placed in the receptor compartment of the membrane permeation cell apparatus.
Dialysis profile of Molsidomin-β-CD granule was examined using the same permeation cell as described above.
Molsidomin at a concentration of 1 mg/ml and equivalent amount of complex granule were used in the experiment
100% diffusion corresponding to 0.33 mg/ml Molsidomin concentration in the receptor cell.

[2] = Molsidomin alone, no cyclodextrin; 37 °C; donor 1 and 2 mg/ml
Description: Visking-type cellophane membrane (average pore diameter 24 angstroms) was used. Aqueous solutions of Molsidomin at a concentration of 1 and 2 mg/ml were put in the donor cell, while distilled water was placed in the receptor compartment of the membrane permeation cell apparatus. The solutions were stirred by magnetic stirrers and were kept at 37+1° C. At appropriate time intervals samples were pipetted from the receptor solutions and concentration of Molsidomin permeated from the donor cell was measured by UV-spectrophotometry. The test was repeated in the presence of different cyclodextrins at different concentrations in the donor cell compartment.

[3] = 25° C.; cited from earlier work
[4] = pH value of 5-7; cited from earlier work
[5] = oral; cited from earlier work
angina pectoris = details: cited from earlier work
[6] = percutaneous, cited from earlier work
[7] = compared to the organic nitrates; cited from earlier work

Structure (SMILES): CCOC(=O)[N-]c1cn(N2CCOCC2)n[o+]1 [Molsidomin, N-ethoxycarbonyl-3-morpholino-sydnonimine]
- Concentration of Molsidomin in the receptor cell ([1]; 1 hour): 200 µg/mL
- Concentration of Molsidomin in the receptor cell ([1]; 2 hours): 290 µg/mL
- Concentration of Molsidomin in the receptor cell ([1]; 3 hours): 320 µg/mL
- Concentration of Molsidomin in the receptor cell ([1]; 4 hours): 340 µg/mL
- Diffusion half life (T 50%) of Molsidomin [2]: 1.0 h
- solubility in water [3]: 18 mg/mL (≈ 74.3 mM)
- stability in water [4]: stable
- absorption along the whole Gi-tract [5]: fairly absorbed
- bioavailability [5]: satisfactory
- duration of effect compared to the organic nitrates (angina pectoris; compared to the organic nitrates): more lasting
- duration of effect of oral preparation (angina pectoris; oral, 2 mg of the active ingredient): 3 to 5 h
- bioavailability through the skin ([6]; Molsidomin itself): 4%
- resorption through the skin ([6]; Molsidomin itself): resorbed slowly and to a small extent
- resorption of Molsidomin relative to propylene-glycol [6]: of similar extent, and of similar quantity
- habit forming [7]: does not become habit forming
- headaches [7]: rarely induces headaches which are also less severe
- side-effects [7]: less side-effects
